Experimental data taken from patent publication US12077503B2, “Substituted cyclic amides and their use as herbicides” (FMC CORPORATION, priority 2015, dated 2024).

Legend:
Type in all cases: in vivo
Kochia (Kochia scoparia) [1] = test: Test A preemergence; settings: Preemergence; for Plant response rating, Kochia: 125 g ai/ha, visual injury after approximately 10 d, 0 to 100 scale where 0 is no effect and 100 is complete control; for Kochia plant response rating (0 to 100 scale, 0 is no effect, 100 is complete control): 500 g ai/ha, visual injury approx. 10 d
Procedure, shortened: (§1)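 Greenhouse, ~10 d after spray; visual injury vs untreated controls, 0 = no effect, 100 = complete control. Preemergence: directed soil spray over planted seeds. Postemergence: plants 2–10 cm, 1–2 leaf stage. Loam/sand blend. Compound in non-phytotoxic solvent with surfactant.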

[2] = tested on: ragweed (common ragweed, Ambrosia elatior); test: Test A preemergence; settings: Preemergence; for Plant response rating, Ragweed: 125 g ai/ha, visual injury after approximately 10 d, 0 to 100 scale where 0 is no effect and 100 is complete control; for Ragweed plant response rating (0 to 100 scale, 0 is no effect, 100 is complete control): 500 g ai/ha, visual injury approx. 10 d
Procedure, shortened: as §1

[3] = tested on: giant foxtail (Setaria faberii); test: Test A preemergence; settings: Preemergence; for Plant response rating, Foxtail, Giant: 125 g ai/ha, visual injury after approximately 10 d, 0 to 100 scale where 0 is no effect and 100 is complete control; for Foxtail, Giant plant response rating (0 to 100 scale, 0 is no effect, 100 is complete control): 500 g ai/ha, visual injury approx. 10 d
Procedure, shortened: as §1

[4] = tested on: ryegrass, Italian (Italian ryegrass, Lolium multiflorum); test: Test A preemergence; settings: Preemergence; for Plant response rating, Ryegrass, Italian: 125 g ai/ha, visual injury after approximately 10 d, 0 to 100 scale where 0 is no effect and 100 is complete control; for Ryegrass, Italian plant response rating (0 to 100 scale, 0 is no effect, 100 is complete control): 500 g ai/ha, visual injury approx. 10 d
Procedure, shortened: as §1

[5] = tested on: barnyardgrass (Echinochloa crus-galli); test: Test A preemergence; settings: Preemergence; for Plant response rating, Barnyardgrass: 125 g ai/ha, visual injury after approximately 10 d, 0 to 100 scale where 0 is no effect and 100 is complete control; for Barnyardgrass plant response rating (0 to 100 scale, 0 is no effect, 100 is complete control): 500 g ai/ha, visual injury approx. 10 d
Procedure, shortened: as §1

[6] = tested on: pigweed (Amaranthus retroflexus); test: Test A preemergence; settings: Preemergence; for Plant response rating, Pigweed: 125 g ai/ha, visual injury after approximately 10 d, 0 to 100 scale where 0 is no effect and 100 is complete control; for Pigweed plant response rating (0 to 100 scale, 0 is no effect, 100 is complete control): 500 g ai/ha, visual injury approx. 10 d
[7] = tested on: sedge, umbrella (small-flower umbrella sedge, Cyperus difformis); test: Test B flooded paddy test; settings: Flood, 250 g ai/ha; 0 to 100 scale where 0 is no effect and 100 is complete control; 13 to 15 d
Procedure, shortened: (§2)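 Evaluation by eye, against controls, occurred 13–15 d post-treatment in a greenhouse, using a 0 (no effect) to 100 (complete control) scale. Application was into the paddy water, 3 cm deep over the soil, on 2-leaf plants.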

[8] = tested on: ducksalad (Heteranthera limosa); test: Test B flooded paddy test; settings: Flood, 250 g ai/ha; 0 to 100 scale where 0 is no effect and 100 is complete control; 13 to 15 d
Procedure, shortened: as §2

[9] = tested on: barnyardgrass (Echinochloa crus-galli); test: Test B flooded paddy test; settings: Flood, 250 g ai/ha; 0 to 100 scale where 0 is no effect and 100 is complete control; 13 to 15 d
Procedure, shortened: as §2

rice (Oryra sativa) = test: Test B flooded paddy test; settings: Flood, 250 g ai/ha; 0 to 100 scale where 0 is no effect and 100 is complete control; 13 to 15 d
Procedure, shortened: as §2

Kochia (Kochia scoparia) [10] = test: Test A postemergence
Procedure, shortened: as §1

[11] = tested on: ragweed (common ragweed, Ambrosia elatior); test: Test A postemergence
Procedure, shortened: as §1

[12] = tested on: blackgrass (Alopecurus myosuroides); test: Test A postemergence
Procedure, shortened: as §1

[13] = tested on: giant foxtail (Setaria faberii); test: Test A postemergence
Procedure, shortened: as §1

[14] = tested on: ryegrass, Italian (Italian ryegrass, Lolium multiflorum); test: Test A postemergence
Procedure, shortened: as §1

[15] = tested on: wheat (Triticum aestivum); test: Test A postemergence
Procedure, shortened: as §1

[16] = tested on: Galium (catchweed bedstraw, Galium aparine); test: Test A postemergence
Procedure, shortened: as §1

[17] = tested on: barnyardgrass (Echinochloa crus-galli); test: Test A postemergence
Procedure, shortened: as §1

[18] = tested on: pigweed (Amaranthus retroflexus); test: Test A postemergence
Procedure, shortened: as §1

corn (Zea mays) = test: Test A postemergence
Procedure, shortened: as §1

[19] = 125 g ai/ha, postemergence, visual rating after approx. 10 d, 0 to 100 scale (0 no effect, 100 complete control)
[20] = Postemergence, 500 g ai/ha, 0 to 100 scale where 0 is no effect and 100 is complete control

SMILES	Plant response rating, Kochia (Kochia (Kochia scoparia) [1])	Kochia plant response rating (0 to 100 scale, 0 is no effect, 100 is complete control) (Kochia (Kochia scoparia) [1])	Plant response rating, Ragweed [2]	Ragweed plant response rating (0 to 100 scale, 0 is no effect, 100 is complete control) [2]	Plant response rating, Foxtail, Giant [3]	Foxtail, Giant plant response rating (0 to 100 scale, 0 is no effect, 100 is complete control) [3]	Plant response rating, Ryegrass, Italian [4]	Ryegrass, Italian plant response rating (0 to 100 scale, 0 is no effect, 100 is complete control) [4]	Plant response rating, Barnyardgrass [5]	Barnyardgrass plant response rating (0 to 100 scale, 0 is no effect, 100 is complete control) [5]	Plant response rating, Pigweed [6]	Pigweed plant response rating (0 to 100 scale, 0 is no effect, 100 is complete control) [6]	Plant response rating, Sedge, Umbrella [7]	Plant response rating, Ducksalad [8]	Plant response rating, Barnyardgrass [9]	Plant response rating, Rice (rice (Oryra sativa))	Plant response rating, Kochia (Kochia (Kochia scoparia) [10]; [19])	Plant response rating, Kochia (Kochia (Kochia scoparia) [10]; [20])	Plant response rating, Ragweed [11, 19]	Plant response rating, Ragweed [11, 20]	other results
O=C1NCC(c2cc(C(F)(F)F)cc(C(F)(F)F)c2)C1C(=O)Nc1cccc(F)c1F (stereo not drawn) [Compound 588]	0	0	0	0	90	90	80	50	90	90	0	0	0	70	30	30	0	70	0	50	Plant response rating, Blackgrass [12, 19]: 20; Plant response rating, Blackgrass [12, 20]: 50; Plant response rating, Foxtail, Giant [13, 19]: 80; Plant response rating, Foxtail, Giant [13, 20]: 80; Plant response rating, Ryegrass, Italian [14, 19]: 0; Plant response rating, Ryegrass, Italian [14, 20]: 50; Plant response rating, Wheat [15, 19]: 0; Plant response rating, Wheat [15, 20]: 40; Plant response rating, Galium [16, 19]: 0; Plant response rating, Galium [16, 20]: 30; Plant response rating, Barnyardgrass [17, 19]: 80; Plant response rating, Barnyardgrass [17, 20]: 80; Plant response rating, Pigweed [18, 19]: 20; Plant response rating, Pigweed [18, 20]: 40; Plant response rating, Corn (corn (Zea mays); [19]): 0; Plant response rating, Corn (corn (Zea mays); [20]): 70
O=C1NCC(c2cccc(C(F)(F)F)c2F)C1C(=O)Nc1ccc(F)cc1F (stereo not drawn) [Compound 592]	0	30	0	20	90	90	0	50	90	90	0	0	0	80	55	0	0	40	0	0	Plant response rating, Blackgrass [12, 19]: 30; Plant response rating, Blackgrass [12, 20]: 60; Plant response rating, Foxtail, Giant [13, 19]: 80; Plant response rating, Foxtail, Giant [13, 20]: 90; Plant response rating, Ryegrass, Italian [14, 19]: 0; Plant response rating, Ryegrass, Italian [14, 20]: 0; Plant response rating, Wheat [15, 19]: 30; Plant response rating, Wheat [15, 20]: 70; Plant response rating, Galium [16, 19]: 20; Plant response rating, Galium [16, 20]: 30; Plant response rating, Barnyardgrass [17, 19]: 80; Plant response rating, Barnyardgrass [17, 20]: 90; Plant response rating, Pigweed [18, 19]: 0; Plant response rating, Pigweed [18, 20]: 0; Plant response rating, Corn (corn (Zea mays); [19]): 50; Plant response rating, Corn (corn (Zea mays); [20]): 70
O=C1NCC(c2ccsc2Br)C1C(=O)Nc1cccc(F)c1F (stereo not drawn) [Compound 598]	0	0	0	0	0	60	0	20	0	60	0	0	0	65	0	0	0	20	0	20	Plant response rating, Blackgrass [12, 19]: 0; Plant response rating, Blackgrass [12, 20]: 0; Plant response rating, Foxtail, Giant [13, 19]: 0; Plant response rating, Foxtail, Giant [13, 20]: 20; Plant response rating, Ryegrass, Italian [14, 19]: 0; Plant response rating, Ryegrass, Italian [14, 20]: 0; Plant response rating, Wheat [15, 19]: 0; Plant response rating, Wheat [15, 20]: 0; Plant response rating, Galium [16, 19]: 0; Plant response rating, Galium [16, 20]: 30; Plant response rating, Barnyardgrass [17, 19]: 10; Plant response rating, Barnyardgrass [17, 20]: 80; Plant response rating, Pigweed [18, 19]: 0; Plant response rating, Pigweed [18, 20]: 0; Plant response rating, Corn (corn (Zea mays); [19]): 0; Plant response rating, Corn (corn (Zea mays); [20]): 0
O=C1NCC(c2ccsc2Cl)C1C(=O)Nc1ccccc1F (stereo not drawn) [Compound 599]	0	0	0	0	0	0	0	0	0	30	0	0	0	50	0	0	0	0	0	0	Plant response rating, Blackgrass [12, 19]: 0; Plant response rating, Blackgrass [12, 20]: 0; Plant response rating, Foxtail, Giant [13, 19]: 0; Plant response rating, Foxtail, Giant [13, 20]: 0; Plant response rating, Ryegrass, Italian [14, 19]: 0; Plant response rating, Ryegrass, Italian [14, 20]: 0; Plant response rating, Wheat [15, 19]: 0; Plant response rating, Wheat [15, 20]: 0; Plant response rating, Galium [16, 19]: 0; Plant response rating, Galium [16, 20]: 0; Plant response rating, Barnyardgrass [17, 19]: 0; Plant response rating, Barnyardgrass [17, 20]: 20; Plant response rating, Pigweed [18, 19]: 0; Plant response rating, Pigweed [18, 20]: 0; Plant response rating, Corn (corn (Zea mays); [19]): 0; Plant response rating, Corn (corn (Zea mays); [20]): 0
